The values below come from ChEMBL document CHEMBL5532664, “Discovery, Optimization, and Evaluation of Potent and Selective DNA-PK Inhibitors in Combination with Chemotherapy or Radiotherapy for the Treatment of Malignancies” (J Med Chem, 2024).

By inhibition is commonly meant the drop in the measured response relative to a control, in per cent. The half-life is the time needed for the level to fall by half in the phase considered. A high value points to slow decline. The term IC50 denotes the midpoint of a concentration-inhibition curve.

One series relates to HCT-116. In words: Inhibition of colony formation in human HCT-116 cells at […] preincubated with compound for 1 hr followed by exposure to 2 Gy gamma irradiation and measured after 7 days by crystal violet staining based chemiluminescence assay relative to control. The format is functional. To be noted: HCT-116, light or radiation study, dose 0.25 µM, time 169 hrs.
Another series can be described thus: in vitro. To be noted: human, liver microsomes. A general note: Microsomes from liver hold many membrane-bound enzymes, among them those of drug oxidation.
In series [1] the target is DNA-dependent protein kinase catalytic subunit (Homo sapiens, UniProt P78527).
DNA-dependent protein kinase catalytic subunit, sequence (P78527 whole entry): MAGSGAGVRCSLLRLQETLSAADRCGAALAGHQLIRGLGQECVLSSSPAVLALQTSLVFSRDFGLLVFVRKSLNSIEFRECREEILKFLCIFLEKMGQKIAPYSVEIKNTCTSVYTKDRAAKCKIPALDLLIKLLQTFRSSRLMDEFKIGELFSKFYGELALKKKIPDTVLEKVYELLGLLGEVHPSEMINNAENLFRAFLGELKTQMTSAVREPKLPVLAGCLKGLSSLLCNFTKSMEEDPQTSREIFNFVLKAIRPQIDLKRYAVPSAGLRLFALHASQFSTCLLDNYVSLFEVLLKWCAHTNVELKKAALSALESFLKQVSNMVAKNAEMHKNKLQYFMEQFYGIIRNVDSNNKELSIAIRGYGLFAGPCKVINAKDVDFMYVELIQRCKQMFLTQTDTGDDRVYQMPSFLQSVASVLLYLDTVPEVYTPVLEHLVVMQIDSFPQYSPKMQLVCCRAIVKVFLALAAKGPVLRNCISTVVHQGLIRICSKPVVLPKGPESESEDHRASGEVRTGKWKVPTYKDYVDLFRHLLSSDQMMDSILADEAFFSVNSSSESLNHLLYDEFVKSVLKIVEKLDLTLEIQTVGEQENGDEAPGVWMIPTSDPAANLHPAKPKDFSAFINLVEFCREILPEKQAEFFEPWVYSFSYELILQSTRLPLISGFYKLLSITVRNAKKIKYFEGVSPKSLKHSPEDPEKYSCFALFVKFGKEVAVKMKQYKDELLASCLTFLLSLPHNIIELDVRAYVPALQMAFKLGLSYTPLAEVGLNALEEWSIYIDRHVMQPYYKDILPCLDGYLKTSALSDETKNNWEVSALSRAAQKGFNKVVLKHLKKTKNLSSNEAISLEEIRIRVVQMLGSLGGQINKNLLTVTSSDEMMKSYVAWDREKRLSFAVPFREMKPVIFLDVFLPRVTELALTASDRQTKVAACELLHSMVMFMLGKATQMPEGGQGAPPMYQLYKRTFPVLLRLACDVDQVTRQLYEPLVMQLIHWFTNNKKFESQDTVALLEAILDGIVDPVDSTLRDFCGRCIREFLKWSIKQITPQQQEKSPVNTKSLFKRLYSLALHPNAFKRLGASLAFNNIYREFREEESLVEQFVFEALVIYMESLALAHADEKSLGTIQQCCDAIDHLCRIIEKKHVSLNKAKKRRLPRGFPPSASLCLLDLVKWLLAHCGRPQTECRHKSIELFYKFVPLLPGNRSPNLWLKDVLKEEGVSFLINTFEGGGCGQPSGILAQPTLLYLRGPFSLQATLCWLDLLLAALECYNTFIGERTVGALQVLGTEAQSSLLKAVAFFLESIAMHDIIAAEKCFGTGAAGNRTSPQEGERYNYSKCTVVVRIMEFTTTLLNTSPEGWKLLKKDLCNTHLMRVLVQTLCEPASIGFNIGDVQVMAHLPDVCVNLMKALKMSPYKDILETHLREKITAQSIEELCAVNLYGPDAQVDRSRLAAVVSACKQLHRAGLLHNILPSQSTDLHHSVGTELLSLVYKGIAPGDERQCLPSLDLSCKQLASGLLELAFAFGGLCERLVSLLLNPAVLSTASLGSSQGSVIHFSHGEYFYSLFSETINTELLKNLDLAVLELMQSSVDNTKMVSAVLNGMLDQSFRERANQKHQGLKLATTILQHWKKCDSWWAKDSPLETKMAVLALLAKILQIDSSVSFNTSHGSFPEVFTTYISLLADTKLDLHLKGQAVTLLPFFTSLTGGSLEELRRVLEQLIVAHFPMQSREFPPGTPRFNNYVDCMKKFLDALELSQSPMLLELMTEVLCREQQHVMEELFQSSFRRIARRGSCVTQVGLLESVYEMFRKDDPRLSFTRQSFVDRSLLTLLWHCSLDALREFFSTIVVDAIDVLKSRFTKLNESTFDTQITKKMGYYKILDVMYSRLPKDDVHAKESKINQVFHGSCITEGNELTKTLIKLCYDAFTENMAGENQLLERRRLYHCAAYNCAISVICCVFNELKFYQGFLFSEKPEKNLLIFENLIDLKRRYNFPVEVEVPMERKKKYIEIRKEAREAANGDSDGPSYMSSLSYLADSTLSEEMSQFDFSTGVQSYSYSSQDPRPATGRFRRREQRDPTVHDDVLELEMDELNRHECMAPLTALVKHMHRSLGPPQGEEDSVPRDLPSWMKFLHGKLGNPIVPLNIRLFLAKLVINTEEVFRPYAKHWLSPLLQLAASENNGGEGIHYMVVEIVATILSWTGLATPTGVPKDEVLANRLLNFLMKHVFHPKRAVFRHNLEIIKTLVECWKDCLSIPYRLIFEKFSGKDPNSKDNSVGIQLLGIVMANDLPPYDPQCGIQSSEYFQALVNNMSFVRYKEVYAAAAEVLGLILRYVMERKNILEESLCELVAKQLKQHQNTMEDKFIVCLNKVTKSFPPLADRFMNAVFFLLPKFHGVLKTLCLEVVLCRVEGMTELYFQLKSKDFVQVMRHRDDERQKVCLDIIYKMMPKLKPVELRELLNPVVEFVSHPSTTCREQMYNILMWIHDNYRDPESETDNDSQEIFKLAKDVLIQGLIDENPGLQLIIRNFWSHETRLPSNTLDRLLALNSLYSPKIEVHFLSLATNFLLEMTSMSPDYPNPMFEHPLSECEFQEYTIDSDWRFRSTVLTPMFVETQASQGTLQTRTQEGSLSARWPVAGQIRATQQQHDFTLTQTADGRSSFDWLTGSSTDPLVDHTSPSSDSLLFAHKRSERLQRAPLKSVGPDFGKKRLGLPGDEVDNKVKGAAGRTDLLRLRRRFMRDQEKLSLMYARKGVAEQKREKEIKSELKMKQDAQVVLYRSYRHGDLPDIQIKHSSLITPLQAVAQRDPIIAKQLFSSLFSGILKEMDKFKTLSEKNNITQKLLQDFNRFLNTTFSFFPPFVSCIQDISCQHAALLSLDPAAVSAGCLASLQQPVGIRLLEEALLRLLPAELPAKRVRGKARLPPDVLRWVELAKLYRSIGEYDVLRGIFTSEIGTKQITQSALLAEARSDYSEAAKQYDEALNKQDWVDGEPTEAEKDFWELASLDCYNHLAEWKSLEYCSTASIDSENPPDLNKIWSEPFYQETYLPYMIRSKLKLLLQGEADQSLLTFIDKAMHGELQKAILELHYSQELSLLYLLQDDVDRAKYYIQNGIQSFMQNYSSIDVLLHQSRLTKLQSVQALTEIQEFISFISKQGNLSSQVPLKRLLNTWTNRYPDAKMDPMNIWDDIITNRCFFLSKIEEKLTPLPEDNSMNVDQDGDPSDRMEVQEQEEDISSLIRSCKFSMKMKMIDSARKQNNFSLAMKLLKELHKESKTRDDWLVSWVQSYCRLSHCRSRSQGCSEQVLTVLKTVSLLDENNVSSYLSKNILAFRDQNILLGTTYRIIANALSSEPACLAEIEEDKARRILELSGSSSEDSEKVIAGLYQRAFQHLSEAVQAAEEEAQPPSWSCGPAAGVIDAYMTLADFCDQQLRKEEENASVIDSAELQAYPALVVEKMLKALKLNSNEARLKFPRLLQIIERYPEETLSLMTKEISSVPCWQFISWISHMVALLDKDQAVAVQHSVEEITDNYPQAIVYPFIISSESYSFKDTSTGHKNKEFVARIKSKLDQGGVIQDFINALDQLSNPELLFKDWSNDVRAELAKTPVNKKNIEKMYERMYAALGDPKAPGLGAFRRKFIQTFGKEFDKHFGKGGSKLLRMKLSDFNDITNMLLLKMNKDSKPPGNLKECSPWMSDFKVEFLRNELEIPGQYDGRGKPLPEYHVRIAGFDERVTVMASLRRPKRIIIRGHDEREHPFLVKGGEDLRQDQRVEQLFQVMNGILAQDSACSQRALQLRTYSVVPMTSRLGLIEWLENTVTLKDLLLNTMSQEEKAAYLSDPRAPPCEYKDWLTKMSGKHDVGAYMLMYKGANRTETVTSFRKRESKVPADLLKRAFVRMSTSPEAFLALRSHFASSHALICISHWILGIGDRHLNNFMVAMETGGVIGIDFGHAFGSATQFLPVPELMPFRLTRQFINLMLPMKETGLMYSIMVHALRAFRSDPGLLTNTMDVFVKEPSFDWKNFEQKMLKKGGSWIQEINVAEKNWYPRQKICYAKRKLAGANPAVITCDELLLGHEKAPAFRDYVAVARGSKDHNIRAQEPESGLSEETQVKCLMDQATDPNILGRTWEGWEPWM
Description: Inhibition of human DNA-PK incubated for 30 mins in presence of Mg/ATP by HTRF method

Turning to `Cc1cc(-c2cnn(C)c2C)ncc1Nc1ncc2c(n1)n(C1CCOCC1)c(=O)n2C`, the inhibition at […] in the series on HCT-116 was 28%.

Consider `Cc1cc(-c2coc(C=O)c2)ncc1Nc1ncc2c(n1)n(C1CCOCC1)c(=O)n2C`, for which the half-life at 5 min, 1 µM in “in vitro” worked out at 14.1 min. In the series with HCT-116, the inhibition at […] is 96.9%.

On to `Cc1cc(-c2cnoc2)ncc1Nc1ncc2c(n1)n(C1CCOCC1)c(=O)n2C`, for which, in the series with HCT-116, the inhibition at […] was 32.8%.

With `Cc1cc(-c2cnn(C)c2)ncc1Nc1ncc2c(n1)n(C1CCN(S(C)(=O)=O)CC1)c(=O)n2C`, in series [1], half-maximal inhibition (IC50) required 1 nM. Besides, the inhibition at […] in the series on HCT-116 turned out to be 30.4%.

Regarding `Cc1cc(-c2cn(C)nc2C(F)(F)F)ncc1Nc1ncc2c(n1)n(C1CCOCC1)c(=O)n2C`, in the series “in vitro”, the half-life at 5 min, 1 µM was determined as 120 min. The same compound came in with an IC50 in series [1] of 4 nM. Further, the inhibition at […] in the series with HCT-116 is 63.9%.

For `Cc1cc(-c2ccco2)ncc1Nc1ncc2c(n1)n(C1CCOCC1)c(=O)n2C`, the inhibition at […] in the series with HCT-116 came out at 99.7%.

For the compound `Cc1nc(-c2cnn(C)c2)ncc1Nc1ncc2c(n1)n(C1CCOCC1)c(=O)n2C`, in the series with HCT-116, the inhibition at […] amounted to 63.2%.

In the case of `CC(=O)N1CCC(n2c(=O)n(C)c3cnc(Nc4cnc(-c5cnn(C)c5)cc4C)nc32)CC1`, it took 1 nM to reach half-maximal inhibition in series [1] (IC50). Moreover, the inhibition at […] in the series with HCT-116 worked out at 14.7%.

In the case of `Cc1cc(-c2ccoc2)ncc1Nc1ncc2c(n1)n(C1CCOCC1)c(=O)n2C`, in the series “in vitro”, the half-life at 5 min, 1 µM was 12.8 min. The inhibition at […] with HCT-116 was determined as 99.8%.

`Cn1cc(-c2ccc3c(c2)CCN3c2ncc3c(n2)n(C2CCOCC2)c(=O)n3C)cn1`: in “in vitro”, the half-life at 5 min, 1 µM stood at 151 min. Also, the 50% inhibitory concentration (IC50) in series [1] came to 8 nM. Further, the inhibition at […] with HCT-116 is 97.6%.

Turning to `COc1cncc(-c2ccc(Nc3ncc4c(n3)n(C3CCOCC3)c(=O)n4C)c(C)n2)c1`, half-maximal inhibition in series [1] (IC50) required 5.3 nM. This lies in the single-digit nanomolar range.

Regarding `Cc1cc(-c2c(C)nn(C)c2C)ncc1Nc1ncc2c(n1)n(C1CCOCC1)c(=O)n2C`, in the series with HCT-116, the inhibition at […] came to 22.9%.

In the case of `Cc1cc(-c2cnn(C(C)C)c2)ncc1Nc1ncc2c(n1)n(C1CCOCC1)c(=O)n2C`, the inhibition at […] in the series on HCT-116 is 12.6%.

Consider `Cc1cc(-c2cccc(S(C)(=O)=O)c2)ncc1Nc1ncc2c(n1)n(C1CCOCC1)c(=O)n2C`, for which, in the series on HCT-116, the inhibition at […] is 19.3%.

Consider `Cn1c(=O)n(C2CCOCC2)c2nc(N3CCc4cc(S(C)(=O)=O)ccc43)ncc21`, for which the inhibition at […] in the series with HCT-116 turned out to be 5.8%.

Take `COc1ccc(-c2ccc(Nc3ncc4c(n3)n(C3CCOCC3)c(=O)n4C)c(C)n2)cc1OC`: the inhibition at […] with HCT-116 came to 28.3%.

Consider `Cc1cc(-c2cccnc2)ncc1Nc1ncc2c(n1)n(C1CCOCC1)c(=O)n2C`, for which the inhibition at […] with HCT-116 came out at 97.4%.

`Cn1c(=O)n(C2CCOCC2)c2nc(N3CCc4ccccc43)ncc21` showed a half-life at 5 min, 1 µM in “in vitro” of 72.2 min. In addition, the inhibition at […] in the series on HCT-116 is -11.6%.

As to `Cn1c(=O)n(C2CCOCC2)c2nc(N3CCc4cc(C#N)ccc43)ncc21`, in the series “in vitro”, the half-life at 5 min, 1 µM worked out at 21.1 min. This compound also showed an IC50 in series [1] of 13 nM. For the same compound, the inhibition at […] in the series on HCT-116 was 84.7%.

Turning to `Cc1cc(-c2cnn(C)c2)ncc1Nc1ncc2c(n1)n(C1CCNCC1)c(=O)n2C`, in series [1], the midpoint of inhibition, the IC50, lay at 0.9 nM. The inhibition at […] in the series with HCT-116 is 46.8%.

`Cc1cc(-c2ccnn2C)ncc1Nc1ncc2c(n1)n(C1CCOCC1)c(=O)n2C` yielded a half-life at 5 min, 1 µM in “in vitro” of 866 min. For the same compound, the IC50 in series [1] was found to be 8 nM. For the same compound, the inhibition at […] in the series with HCT-116 worked out at 95%.

Take `Cc1cc(-c2cnn(C)c2)ncc1Nc1ncc2c(n1)n(C1CCN(C(=O)[C@@H]3C[C@H]3F)CC1)c(=O)n2C`: the inhibition at […] with HCT-116 was 28.3%.

`Cc1cc(-c2ccc3c(c2)OCCO3)ncc1Nc1ncc2c(n1)n(C1CCOCC1)c(=O)n2C`: the inhibition at […] in the series on HCT-116 turned out to be 60%.

Regarding `Cc1cc(-c2cnn(C)c2)ncc1Nc1ncc2c(n1)n(CC1CCOCC1)c(=O)n2C`, the inhibition at […] in the series with HCT-116 was found to be 42.8%.

Regarding `COc1ncc(-c2cc(C)c(Nc3ncc4c(n3)n(C3CCOCC3)c(=O)n4C)cn2)cn1`, the inhibition at […] in the series on HCT-116 came to 34%.

`Cc1cc(-c2cnn(C)c2)ncc1Nc1ncc2c(n1)n(C1CCN(C(=O)C3CC3)CC1)c(=O)n2C` returned an IC50 in series [1] of 3 nM. For the same compound, the inhibition at […] with HCT-116 was 66.9%.

Regarding `Cn1c(=O)n(C2CCOCC2)c2nc(N3CCc4cc(F)c(F)cc43)ncc21`, the inhibition at […] in the series on HCT-116 was 8.2%.

With `Cc1cc(-c2cnn(C)c2)ccc1Nc1ncc2c(n1)n(C1CCOCC1)c(=O)n2C`, the inhibition at […] in the series with HCT-116 came out at 58.5%.

Regarding `COC(=O)c1ccc2c(c1)CCN2c1ncc2c(n1)n(C1CCOCC1)c(=O)n2C`, half-maximal inhibition in series [1] (IC50) was put at 5 nM. Also, the inhibition at […] in the series on HCT-116 was 48.1%.

In series [1], `COc1ccc(-c2ccc(Nc3ncc4c(n3)n(C3CCOCC3)c(=O)n4C)c(C)n2)cn1` displayed an IC50 of 161 nM. In addition, the inhibition at […] in the series with HCT-116 came out at 29.9%.

In the case of `Cc1cc(-c2cnn(C)c2)cnc1Nc1ncc2c(n1)n(C1CCOCC1)c(=O)n2C`, the inhibition at […] with HCT-116 was -0.2%.

`Cc1cc(-c2cnn(C)c2)ncc1Nc1ncc2c(n1)n(C1CC1)c(=O)n2C`: the inhibition at […] in the series with HCT-116 worked out at 53.1%.

With `Cc1ccc(-c2cc(C)c(Nc3ncc4c(n3)n(C3CCOCC3)c(=O)n4C)cn2)o1`, the half-life at 5 min, 1 µM in the series “in vitro” worked out at 38.5 min. For the same compound, the inhibition at […] with HCT-116 was 76.7%.

`Cc1nc(-c2cnn(C)c2)ccc1Nc1ncc2c(n1)n(C1CCOCC1)c(=O)n2C`: the inhibition at […] in the series on HCT-116 was found to be 23.3%.

In turn, `Cc1ncc(-c2cnn(C)c2)cc1Nc1ncc2c(n1)n(C1CCOCC1)c(=O)n2C` returned an IC50 in series [1] of 10 nM. The inhibition at […] in the series on HCT-116 was found to be 74.3%.

As for `Cc1cc(-c2cnn(C)c2)ncc1Nc1ncc2c(n1)n(C1CCCCC1C)c(=O)n2C` (stereo not given), the IC50 in series [1] is 9 nM. In addition, in the series on HCT-116, the inhibition at […] came out at 86.7%.

`Cc1cc(-c2cnn(C)c2)ncc1Nc1ncc2c(n1)n(C1CCN(S(=O)(=O)C(F)(F)F)CC1)c(=O)n2C` gave a half-inhibitory concentration (IC50) in series [1] of 5 nM. Moreover, the inhibition at […] with HCT-116 is 86.7%.

Regarding `COc1cc2c(cc1OC)N(c1ncc3c(n1)n(C1CCOCC1)c(=O)n3C)CC2`, in the series with HCT-116, the inhibition at […] was 89.8%.

With `Cn1c(=O)n(C2CCOCC2)c2nc(Nc3ccc(-c4ccc5c(c4)OCO5)nc3)ncc21`, the inhibition at […] with HCT-116 was 85.8%.

Take `Cc1cc(-c2c(C)noc2C)ncc1Nc1ncc2c(n1)n(C1CCOCC1)c(=O)n2C`: in the series with HCT-116, the inhibition at […] worked out at 25%.

For the compound `Cc1cc(-c2cnn(C3CC3)c2)ncc1Nc1ncc2c(n1)n(C1CCOCC1)c(=O)n2C`, the inhibition at […] in the series with HCT-116 is 63.3%.

In the case of `Cn1c(=O)n(C2CCOCC2)c2nc(N3CCc4ccc([N+](=O)[O-])cc43)ncc21`, the inhibition at […] with HCT-116 came to 12.5%.

On to `Cn1c(=O)n(C2CCOCC2)c2nc(N3CCc4cc(C(F)(F)F)ccc43)ncc21`, for which the inhibition at […] in the series with HCT-116 was found to be 41%.

`Cc1nc(-c2ccnn2C)ccc1Nc1ncc2c(n1)n(C1CCOCC1)c(=O)n2C`: the IC50 in series [1] turned out to be 9.6 nM.

As to `CC(=O)c1ccc2c(c1)CCN2c1ncc2c(n1)n(C1CCOCC1)c(=O)n2C`, the IC50 in series [1] came out at 1 nM. Also, the inhibition at […] in the series with HCT-116 is 32.6%.

Turning to `COc1cc(-c2cc(C)c(Nc3ncc4c(n3)n(C3CCOCC3)c(=O)n4C)cn2)cc(OC)c1OC`, in the series on HCT-116, the inhibition at […] is -11.4%.

Turning to `Cc1cc(-c2cnn(C)c2)ncc1Nc1ncc2c(n1)n(C1CCN(C(=O)C3CC3(F)F)CC1)c(=O)n2C` (stereo not given), in series [1], 12 nM corresponded to half-maximal inhibition (IC50). The inhibition at […] in the series on HCT-116 was 47.3%.

For `Cc1cc(-c2cncnc2)ncc1Nc1ncc2c(n1)n(C1CCOCC1)c(=O)n2C`, the inhibition at […] in the series with HCT-116 came to 22.9%.

In the case of `Cc1cc(-c2ncn(C)n2)ccc1Nc1ncc2c(n1)n(C1CCOCC1)c(=O)n2C`, the IC50 in series [1] is 13 nM. Besides, the inhibition at […] with HCT-116 worked out at 56.1%.

In the series “in vitro”, `Cc1cc(-c2cnn(C)c2)ncc1Nc1ncc2c(n1)n([C@@]13C[C@@H]4C[C@@](C)(C[C@@](C)(C4)C1)C3)c(=O)n2C` displayed a half-life at 5 min, 1 µM of 2.24 min. The inhibition at […] with HCT-116 was 83.9%.
